The record followed here is PubChem BioAssay AID1117327 (Cheminformatics & Chemogenomics Research Group (CCRG), …, 2015).

Where “and” joins values, the source holds several entries; their conditions need not be identical. Equal values may be shown once. Calls of active or inactive are those of the source. The rule behind the calls is not given here. Starred links: 1 amine or outer side, 2 acyl side, 3 side chain; linkers in the order of their positions; H or OH if unused. Positions of bridges follow the written chain, without caps; N, C: chain ends. Non-standard residues stand in square brackets, D forms with d. Residues, ends and D or L forms follow the SMILES beside them. Chains are numbered I, II in the order given. Actinocin(9to1) = Cc1c2oc3c(C)ccc(C(=O)[*:1])c3nc-2c(C(=O)[*:2])c(N)c1=O; NMeV = CN[C@H](C(=O)O)C(C)C; Sar = CNCC(=O)O

The assay has as its system C2C12 + WNT3A conditioned medium, alkaline phosphatase. Description: alkaline phosphatase induction in C2C12 cells, dose response, cell-based, WNT3A-conditioned medium (AID 1117327).
With `CC(C)C[C@H](NC(=O)[C@H](CCc1ccccc1)NC(=O)CN1CCOCC1)C(=O)N[C@@H](Cc1ccccc1)C(=O)N[C@@H](CC(C)C)C(=O)[C@@]1(C)CO1`, the IC50 (usually the midpoint of a concentration-inhibition curve) is 15.2 nM.
Regarding `COC(=O)[C@H]1[C@H]2C[C@@H]3c4[nH]c5cc(OC)ccc5c4CCN3C[C@H]2C[C@@H](OC(=O)/C=C/c2ccc(O)c(OC)c2)[C@@H]1OC`, the IC50 is 10400 nM (inactive).
The result for `CC[C@@]1(O)C(=O)OCc2c1cc1n(c2=O)Cc2c-1nc1ccccc1c2/C=N/OC(C)(C)C` reads 3.2 nM; that for `CCCOc1ccc2nc(NC(=O)OC)[nH]c2c1`, 88.1 nM.
As to `O=C1OC2(c3cc(Br)c(O)cc3Oc3c2cc(Br)c(O)[c]3[Hg])c2ccccc21` (stereo not given), the IC50 was > 20000 nM (inactive).
Then `Cc1ccc([N+](=O)[O-])[c]2c1[O][Hg]2`, with 155 nM; and `CC[C@@]1(O)C(=O)OCc2c1cc1n(c2=O)Cc2cc3c(CN(C)C)c(O)ccc3nc2-1`, with 17.9 nM.
The result for `CCCCCCCCCCCCCC[N+](C)(C)C` reads > 20000 nM (inactive).
The result for `CC(=O)Oc1ccc(C2(c3ccc(OC(C)=O)cc3)Oc3ccccc3NC2=O)cc1` reads 14000 nM (inactive).
Consider `COC(=O)Nc1nc2ccc(C(=O)c3cccs3)cc2[nH]1`, for which the IC50 is 43.4 nM.
`CCCCCCCCCCCCCC[N+](C)(C)Cc1ccccc1`: the IC50 is > 20000 nM (inactive).
Turning to `O=C1C(I)=CC(=C(c2cc(I)c(O)c(I)c2)c2ccccc2C(=O)O)C=C1I`, the IC50 is > 20000 nM (inactive).
In the case of `COC(=O)Nc1nc2ccc(S(=O)c3ccccc3)cc2[nH]1` (stereo not given), the half-inhibitory concentration (IC50) was 559 nM.
The result for `COC(=O)Nc1nc2ccc(C(=O)C3CC3)cc2[nH]1` reads 684 nM; that for `Cc1c2oc3c(C)ccc(C(=O)N[C@@H]4C(=O)N[C@H](C(C)C)C(=O)N5CCC[C@H]5C(=O)N(C)CC(=O)N(C)[C@@H](C(C)C)C(=O)O[C@@H]4C)c3nc-2c(C(=O)N[C@@H]2C(=O)N[C@H](C(C)C)C(=O)N3CCC[C@H]3C(=O)N(C)CC(=O)N(C)[C@@H](C(C)C)C(=O)O[C@@H]2C)c(N)c1=O` (I: T[dV]P[Sar][NMeV] / II: T[dV]P[Sar][NMeV]; ester I:1-I:C, II:1-II:C; linker I:N-II:N via Actinocin(9to1)), 1.5 nM; that for `[O-][n+]1ccccc1SSc1cccc[n+]1[O-]`, 131 nM.
The result for `O=c1c(-c2ccccc2)c1-c1ccccc1` reads 3620 nM; that for `CN(C)c1ccc(C(=C2C=CC(=[N+](C)C)C=C2)c2ccccc2)cc1`, 363 nM.
The result for `C#C[C@]1(O)CC[C@H]2[C@@H]3CCc4cc(OC5CCCC5)ccc4[C@H]3CC[C@@]21C` reads > 20000 nM (inactive); that for `Cc1ccccc1C(=O)Nc1ccc(C(=O)N2CCCC(N(C)C)c3ccccc32)cc1` (stereo not given), 9980 nM (inactive); that for `O=C(Nc1ccc([N+](=O)[O-])cc1Cl)c1cc(Cl)ccc1O`, > 20000 nM (inactive).
Turning to `COC(=O)c1nc(Cl)c(Cl)nc1N`, the IC50 was 157 nM.
Then `O=C1C2CC=CCC2C(=O)N1SC(Cl)(Cl)Cl` (stereo not given), with 511 nM; and `C[C@@]12C(=O)OC(=O)[C@]1(C)C1CCC2O1`, with 1490 nM.
The result for `Cc1ccc2nc(N)[nH]c(=O)c2c1Sc1ccncc1` reads 244 nM; that for `Nc1ccc2cc3ccc(N)cc3nc2c1`, > 20000 nM (inactive).
Then `Cc1ccc2c(Br)cc(Br)c(O)c2n1`, with > 20000 nM (inactive).
With `CCCCC1C(=O)N(c2ccccc2)N(c2ccc(O)cc2)C1=O` (stereo not given), the IC50 is 4920 nM.
Turning to `COc1ccc2cc1Oc1ccc(cc1)C[C@H]1c3c(cc4c(c3Oc3cc5c(cc3OC)CCN(C)[C@@H]5C2)OCO4)CCN1C`, the IC50 was 2050 nM.
The result for `CCc1nc(N)nc(N)c1-c1ccc(Cl)cc1` reads 67.7 nM; that for `COC(=O)Nc1nc2ccc(Sc3ccccc3)cc2[nH]1`, 438 nM; that for `O=C1c2c(O)ccc(O)c2C(=O)c2c(NCCNCCO)ccc(NCCNCCO)c21`, 1510 nM.
On to `CCCN(CCC)C(=O)C(CCC(=O)OCCCN1CCN(CCOC(=O)Cc2c(C)n(C(=O)c3ccc(Cl)cc3)c3ccc(OC)cc23)CC1)NC(=O)c1ccccc1` (stereo not given), for which the IC50 is 13200 nM (inactive).
Regarding `COCc1c(C(C)C)nc(C(C)C)c(/C=C/[C@@H](O)C[C@@H](O)CC(=O)O)c1-c1ccc(F)cc1`, the IC50 is > 20000 nM (inactive).
Then `CCCCCCNC(=O)n1cc(F)c(=O)[nH]c1=O`, with 5550 nM (inactive); and `Cc1nc2ccc(CN(C)c3ccc(C(=O)N[C@@H](CCC(=O)O)C(=O)O)s3)cc2c(=O)[nH]1`, with 4.2 nM.
Then `NC(=NCCCCCCN=C(N)/N=C(\N)Nc1ccc(Cl)cc1)/N=C(\N)Nc1ccc(Cl)cc1`, with > 20000 nM (inactive); and `CCCCCCCCCCCC(=O)[O][Sn]([CH2]CCC)([CH2]CCC)[O]C(=O)CCCCCCCCCCC`, with > 20000 nM (inactive).
The result for `O=[N+]([O-])C(Br)(CO)CO` reads > 20000 nM (inactive).
In the case of `C[n+]1c2cc(N)ccc2cc2ccc(N)cc21` (tested in a mixture with another compound), the IC50 was 1600 nM.
Then `COc1cccc2c1C(=O)c1c(O)c3c(c(O)c1C2=O)C[C@@](O)(C(=O)CO)CC3OC1CC(N2CCOC(OC)C2)C(O)C(C)O1` (stereo not given in full), with > 20000 nM (inactive); and `CC[C@@H]([C@H](C)O)n1ncn(-c2ccc(N3CCN(c4ccc(OC[C@@H]5CO[C@@](Cn6cncn6)(c6ccc(F)cc6F)C5)cc4)CC3)cc2)c1=O`, with 1630 nM; and `Cc1cc2c(C(C)C)c(O)c(O)c(C=O)c2c(O)c1-c1c(C)cc2c(C(C)C)c(O)c(O)c(C=O)c2c1O`, with > 20000 nM (inactive).
The result for `Oc1c(I)cc(Cl)c2cccnc12` reads 5400 nM (inactive); that for `CCCSc1ccc2nc(NC(=O)OC)[nH]c2c1`, 12300 nM (inactive); that for `COC(=O)Nc1nc2ccc(C(=O)c3ccccc3)cc2[nH]1`, 245 nM.
For the compound `Cc1cc(CC(C)CC(C)(C)C)n(O)c(=O)c1` (stereo not given), the IC50 is > 20000 nM (inactive).
The result for `CN1C[C@H](CNC(=O)OCc2ccccc2)C[C@@H]2c3cccc4c3c(cn4C)C[C@H]21` reads > 20000 nM (inactive); that for `CCCCCCCCCCOCC(O)CN` (stereo not given), > 20000 nM (inactive).
Then `CC[C@]1(O)C[C@@H]2CN(CCc3c([nH]c4ccccc34)[C@@](C(=O)OC)(c3cc4c(cc3OC)N(C)[C@H]3[C@@](O)(C(=O)OC)[C@H](OC(C)=O)[C@]5(CC)C=CCN6CC[C@]43[C@@H]65)C2)C1`, with > 20 µM (inactive) and 8.9 nM; and `C=C(C)[C@H]1Cc2c(ccc3c2O[C@@H]2COc4cc(OC)c(OC)cc4[C@@H]2C3=O)O1`, with 254 nM.
In the case of `CCCCCCCCCCCCCCC[C@H](O)[C@@H](N)CO`, the IC50 is > 20000 nM (inactive).
Regarding `COc1cccc2c1C(=O)c1c(O)c3c(c(O)c1C2=O)C[C@@](O)(C(=O)CO)C[C@@H]3O[C@H]1C[C@H](N)[C@H](O[C@@H]2CCCCO2)[C@H](C)O1`, the IC50 was 3950 nM.
Then `Cc1cc(C2CCCCC2)n(O)c(=O)c1`, with 1050 nM.
With `COc1cccc2c1C(=O)c1c(O)c3c(c(O)c1C2=O)C[C@@](O)(C(C)=O)C[C@@H]3O[C@H]1C[C@H](N)[C@H](O)[C@H](C)O1`, the IC50 is 6.1 nM.
As for `C=CC(=O)Nc1cc2c(Nc3ccc(F)c(Cl)c3)ncnc2cc1OCCCN1CCOCC1`, the IC50 is 9460 nM (inactive).
Then `CN(C)C(=S)SSC(=S)N(C)C`, with > 20000 nM (inactive).
Then `COc1cc([C@@H]2c3cc4c(cc3[C@H](O)[C@H]3COC(=O)[C@H]23)OCO4)cc(OC)c1OC`, with 9.1 nM; and `COc1cc(NCc2ccc3nc(N)nc(N)c3c2C)cc(OC)c1OC`, with > 20000 nM (inactive).
Then `CCN(CC)CCNc1ccc(CO)c2sc3ccccc3c(=O)c12`, with 2670 nM.
For the compound `O[C@@H](c1cc(C(F)(F)F)nc2c(C(F)(F)F)cccc12)[C@H]1CCCCN1`, the IC50 was > 20000 nM (inactive).
Turning to `Cc1cc(O)c2ccccc2c1O`, the IC50 was 1750 nM.
The result for `Cc1cc(=O)c2c(O)c3c(O)cc(=O)c4c3c3c(cc(O)c1c23)C(C)(C)C=4O` reads 2910 nM; that for `CC[C@]1(O)C[C@H]2CN(CCc3c([nH]c4ccccc34)[C@@](C(=O)OC)(c3cc4c(cc3OC)N(C=O)[C@H]3[C@@](O)(C(=O)OC)[C@H](OC(C)=O)[C@]5(CC)C=CCN6CC[C@]43[C@@H]65)C2)C1`, 5.1 nM; that for `OCCN1CCN(CCCN2c3ccccc3Sc3ccc(Cl)cc32)CC1`, > 20000 nM (inactive).
The result for `CN1CC[C@H](c2c(O)cc(O)c3c(=O)cc(-c4ccccc4Cl)oc23)[C@H](O)C1` reads 461 nM; that for `CN(C)CCCN1c2ccccc2Sc2ccc(C(F)(F)F)cc21`, > 20000 nM (inactive).
The result for `Cc1nc(Nc2ncc(C(=O)Nc3c(C)cccc3Cl)s2)cc(N2CCN(CCO)CC2)n1` reads 6.7 nM; that for `CCCCc1ccc2nc(NC(=O)OC)[nH]c2c1`, 68.2 nM; that for `CC(C)(C)C(=O)OCOP(=O)(COCCn1cnc2c(N)ncnc21)OCOC(=O)C(C)(C)C`, 387 nM.
For the compound `CSc1ccc2c(c1)C(N1CCN(C)CC1)Cc1ccccc1S2` (stereo not given), the IC50 is > 20000 nM (inactive).
Then `O=C(CCl)c1ccc(Cl)cc1Cl`, with > 20000 nM (inactive).
The result for `COc1cc(C=C2CCC/C(=C\c3ccc(O)c(OC)c3)C2=O)ccc1O` reads > 20000 nM (inactive); that for `Oc1c(Cl)cc(Cl)cc1Sc1cc(Cl)cc(Cl)c1O`, > 20000 nM (inactive); that for `O=[N+]([O-])c1ccc(O)c2ncccc12`, 6360 nM (inactive).
Consider `CN(Cc1cnc2nc(N)nc(N)c2n1)c1ccc(C(=O)N[C@@H](CCC(=O)O)C(=O)O)cc1`, for which the IC50 is 11.6 nM.
In the case of `NC(N)=NN=C(/C=C/c1ccc([N+](=O)[O-])o1)/C=C/c1ccc([N+](=O)[O-])o1`, the IC50 is 372 nM.
Then `CCC1=C[C@@H]2CN(C1)Cc1c([nH]c3ccccc13)[C@@](C(=O)OC)(c1cc3c(cc1OC)N(C)[C@H]1[C@@](O)(C(=O)OC)[C@H](OC(C)=O)[C@]4(CC)C=CCN5CC[C@]31[C@@H]54)C2`, with 10.1 nM.
For the compound `Cc1nc(N)nc(N)c1-c1ccc(Cl)c(Cl)c1`, the IC50 was 29.9 nM.
For the compound `Clc1cc(Cl)c(OCC#CI)cc1Cl`, the IC50 was > 20000 nM (inactive).
